Several values for one entry are separate records, joined by “and”; a condition that tells them apart may be missing. Identical values can stand only once.
Assays:
NCI-H929 cells [1] = test: Cell proliferation, XTT-based assay; settings: Homo sapiens, NCI-H929, read-out: IC50 (inhibition of cell proliferation)
Method: (§1) Cells were collected and distributed in 96-well plates with 5000 cells per well.
(§2) After incubation, plates were analyzed for cell proliferation in a quantitative colorimietric XTT-based assay using the cell proliferation kit II (ROCHE, Cell Proliferation Kit II, Cat. No.: 11465015001). For subsequent measurement plates were subjected to Tecan Genios Reader and absorbance at 492 nm was detected.
(§3) Increasing amounts of Bortezomib (Velcade®, Lot: No.: #9AZSY00) were applied to AMO-1, LP-1, NCI-H929 and RPMI-8226 cells and incubated for 24 h, 48 h and 72 h. After incubation, period plates were analyzed for cell proliferation in a quantitative colorimietric XTT-based assay using the cell proliferation kit II (ROCHE, Cell Proliferation Kit II, Cat. No.: 11465015001). For subsequent measurement, plates were subjected to Tecan Genios Reader and absorbance at 492 nm was detected.

NCI-H929 cells [2] = test: ADCC with human PBMCs, flow cytometry (CalceinAM/PI); settings: NCI-H929 target cells treated with bortezomib before MOR202 15 μg/ml; FIG. 9
Method: PBMC's were isolated by density gradient centrifugation of freshly isolated human blood. Isolated blood from different donors were layered on a defined volume of Biocoll (Biochrome AG; CAT No.:L6115; LOT No.:1050T) in a Falcon tube and centrifuged at 380 g. The PBMCs were isolated and supplemented with RPMI medium.
Cell suspensions were further incubated for 4 h at 37° C. To detect dead AMO-1 cells, cell suspensions were challenged with propidium iodide (PI) and subsequently analyzed in flow cytometry. Target cells were separated via gating of CalceinAM positive cell populations, and cells killed via ADCC were quantified.
Single and combination doses of 5 μM LEN and 15 μg/ml of MOR03207 and 0.2 or 0.07 μg/ml MOR202 were used.
Single and combination doses of 5 μM LEN and 15 μg/ml of MOR03207 and 0.2* or 0.07 μg/m MOR202 were used.

RAMOS cells = settings: BOR 0.6 mg/kg i.p., MOR202 1 mg/kg i.v.
Method: Fifty-five female SCID mice were pre-treated with Cyclophosphamide (75 mg/kg, i.p., twice daily) for two days prior to RAMOS cell inoculation (Day −5 and −4). On the day of inoculation (Day −3), all fifty-five mice were inoculated with 1×10^6 RAMOS cells each (in 100 μL) intravenously into the tail vein. Forty-eight of the mice were randomised by body weight into six groups of eight.
The study continued for 98 days and the measured endpoint was survival.

AMO-1 cells = test: Cell proliferation, XTT-based assay; parameters: species or system human; settings: Homo sapiens, AMO1, bortezomib alone, XTT, read-out: IC50 (inhibition of cell proliferation)
Method: as §1, §2, §3

NCI-H929 MM cells = test: NCI-H929 bone lysis SCID mouse model, MOR202 and BOR (MicroCT); type: in vivo, SCID mice
Source text: 63 SCID mice were inoculated on Day (−7) intra-tibially with 2.5×10^6 NCI-H929 MM cells in order to induce bone lysis. Bortezomib (Groups A and AB) and Vehicle Control (Group C) treatments started on Day (−1). MOR202 treatments (Groups B and AB) started on Day 0. Treatment continued for 6 weeks.
MicroCT Scan was used to assess bone lysis and included a 3-dimensional analysis comprising Total Bone Volume (TBV), Trabecular Bone Volume (Tb.BV), Trabecular Pattern Factor (Tb.Pf) and Structure Model Index (SMI). Table 10 above defines each of these parameters.

RPMI-8226 cells = test: Cell proliferation, XTT-based assay; settings: Homo sapiens, bortezomib alone, read-out: IC50 (inhibition of cell proliferation)
Method: as §3

LP-1 cells [3] = test: Cell proliferation, XTT-based assay; settings: Homo sapiens, bortezomib alone, read-out: IC50 (inhibition of cell proliferation)
Method: as §3

LP-1 cells [4] = test: ADCC with human PBMCs, flow cytometry (CalceinAM/PI); type: cell-based; settings: LP-1 target cells treated with bortezomib before MOR202 15 μg/ml; FIG. 10
Method: Using the methods described in Example 4, the ADCC effect of combining bortezomib and MOR202 was analyzed. Here, the target cells were treated with bortezomib prior to the treatment with MOR202. Both target cells. NCI-H929 and LP-1 cells were tested.

[5] = Bortezomib 0.6 mg/kg i.p. twice per week, MOR202 3 mg/kg i.p. three times per week, 6 weeks, lower = less bone lysis
[6] = group average of 10 mice, Bortezomib 0.6 mg/kg i.p., MOR202 3 mg/kg i.p., 6 weeks

CC(C)C[C@H](NC(=O)[C@H](Cc1ccccc1)NC(=O)c1cnccn1)B(O)O [bortezomib]
IC50 (NCI-H929 cells [1]): 3.3 nM | Enhancement of MOR202 ADCC activity by bortezomib (in words) (NCI-H929 cells [2]): enhancement in MOR202 activity | Number of mice alive at study termination (day 98) (RAMOS cells): 0/8 | Day of death (post-inoculation) Mean (RAMOS cells; study 98 days): 19.1 days | Day of death (post-inoculation) Median (RAMOS cells; study 98 days): 19 days | % ILS (based on median death day) (RAMOS cells; vs vehicle control): −7% | IC50 (AMO-1 cells): 3.9 nM | Structure Model Index (SMI), individual mouse (NCI-H929 MM cells; [5]): 2.443 and 2.374 and 2.156 and 2.262 and 2.700 and 2.981 and 3.007 and 2.553 and 2.337 and 2.273 | Trabecular Pattern Factor (Tb · Pf), individual mouse (NCI-H929 MM cells; [5]): 25.893 mm^−1 and 26.044 mm^−1 and 16.877 mm^−1 and 23.179 mm^−1 and 32.463 mm^−1 and 33.152 mm^−1 and 34.609 mm^−1 and 31.813 mm^−1 and 27.147 mm^−1 and 23.582 mm^−1 | Structure Model Index (SMI), Average (NCI-H929 MM cells; [6]): 2.509 | Trabecular Pattern Factor (Tb · Pf), Average (NCI-H929 MM cells; [6]): 27.476 mm^−1 | Reduction of bone lysis compared to vehicle control (NCI-H929 MM cells; non-inoculated tibia = 0%, vehicle = 100% bone lysis, MOR202 alone 12 mg/kg, BOR alone 0.6 mg/kg, combination 3 mg/kg MOR202 and 0.6 mg/kg BOR): 40% | IC50 (RPMI-8226 cells): 9 nM | IC50 (LP-1 cells [3]): 6.1 nM | Enhancement of MOR202 ADCC activity by bortezomib (in words) (LP-1 cells [4]): enhancement in MOR202 activity
